This is an account of results in ChEMBL document CHEMBL4765383, “Amphiphilic aminoglycosides with increased selectivity for inhibition of connexin 43 (Cx43) hemichannels” (Eur J Med Chem, 2020).

Test [1] in a line: Selectivity ratio of IC50 for inhibition of human Cx43 to IC50 for inhibition of human Cx26.
Test [2] deals with Gap junction beta-2 protein (Homo sapiens) (UniProt P29033). Kind of test: Inhibition of human Cx26 expressed in kanamycin-resistant Escherichia coli LB2003 cells in medium containing […] K+ and 500 uM IPTG by measuring cell growth at 50 uM after 18 hrs by growth complementation assay. On the set-up: scale not given: the % may be the effect or the level left.
The target in test [3] is Gap junction alpha-1 protein (Homo sapiens) (UniProt P17302). Kind of test: Inhibition of human Cx43 expressed in kanamycin-resistant Escherichia coli LB2003 cells in medium containing […] K+ and 10 uM IPTG by measuring cell growth at 50 uM after 18 hrs by growth complementation assay. Also noted: scale not given: the % may be the effect or the level left.
Gap junction alpha-1 protein (Homo sapiens), sequence (P17302 whole entry): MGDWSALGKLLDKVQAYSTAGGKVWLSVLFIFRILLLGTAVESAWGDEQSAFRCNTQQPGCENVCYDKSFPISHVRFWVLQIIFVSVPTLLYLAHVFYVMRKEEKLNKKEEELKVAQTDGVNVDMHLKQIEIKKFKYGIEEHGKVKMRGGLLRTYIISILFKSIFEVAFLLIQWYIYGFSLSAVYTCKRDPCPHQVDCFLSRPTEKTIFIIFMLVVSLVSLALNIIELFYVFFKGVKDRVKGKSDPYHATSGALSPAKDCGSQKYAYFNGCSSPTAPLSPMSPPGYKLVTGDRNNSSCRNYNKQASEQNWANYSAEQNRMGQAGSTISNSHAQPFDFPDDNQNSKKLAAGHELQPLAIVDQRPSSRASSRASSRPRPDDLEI
The target in test [4] is Gap junction beta-2 protein (Homo sapiens) (UniProt P29033). Kind of test: Inhibition of human Cx26 expressed in kanamycin-resistant Escherichia coli LB2003 cells in medium containing […] K+ and 500 uM IPTG by measuring cell growth at 15 uM after 18 hrs by growth complementation assay. On the set-up: scale not given: the % may be the effect or the level left.
Test [5] concerns the target Gap junction alpha-1 protein (Homo sapiens) (UniProt P17302). Description: Inhibition of human Cx43 expressed in kanamycin-resistant Escherichia coli LB2003 cells in medium containing […] K+ and 10 uM IPTG by measuring cell growth at 15 uM after 18 hrs by growth complementation assay. Also noted: scale not given: the % may be the effect or the level left.

Structures are written as SMILES.

Turning to `COc1ccc(COC[C@H]2O[C@H](O[C@@H]3[C@@H](O)[C@H](O[C@H]4O[C@H](CN)[C@@H](O)[C@H](O)[C@H]4O)[C@@H](N)C[C@H]3N)[C@H](O)[C@@H](N)[C@@H]2OCc2ccc(OC)cc2)cc1`, the Selectivity ratio in test [1] was 3.17.
Still for that read-out and setting: as for `NC[C@H]1O[C@H](O[C@H]2[C@H](O)[C@@H](O[C@H]3O[C@H](COCc4ccc5ccccc5c4)[C@@H](OCc4ccc5ccccc5c4)[C@H](N)[C@H]3O)[C@H](N)C[C@@H]2N)[C@H](O)[C@@H](O)[C@@H]1O`, the figure is 1.07.
On to `NC[C@H]1O[C@H](O[C@H]2[C@H](O)[C@@H](O[C@H]3O[C@H](COc4ccc(Cl)cc4)[C@@H](O)[C@H](N)[C@H]3O)[C@H](N)C[C@@H]2N)[C@H](O)[C@@H](O)[C@@H]1O`, for which the Activity came out at 69.5% in test [2], 68.3% in test [3], 44.4% in test [4] and 50.3% in test [5]. Further, the Selectivity ratio in test [1] turned out to be 1.93.
As to `Cc1ccc(OC[C@H]2O[C@H](O[C@@H]3[C@@H](O)[C@H](O[C@H]4O[C@H](CN)[C@@H](O)[C@H](O)[C@H]4O)[C@@H](N)C[C@H]3N)[C@H](O)[C@@H](N)[C@@H]2O)cc1`, the Activity in test [2] came out at 28.2%; in test [3], 76.8%; in test [4], 19.3%; in test [5], 63.8%. Further, the Selectivity ratio in test [1] came out at 7.97.
Turning to `COc1ccc2cc(C(=O)NC[C@H]3O[C@H](O[C@H]4[C@H](O)[C@@H](O[C@H]5O[C@H](CO)[C@@H](O)[C@H](N)[C@H]5O)[C@H](N)C[C@@H]4N)[C@H](O)[C@@H](O)[C@@H]3O)ccc2c1`, the Activity in test [2] worked out at 27.9%; in test [3], 45.1%; in test [4], 15.1%; in test [5], 42.1%.
For `NC[C@H]1O[C@H](O[C@H]2[C@H](O)[C@@H](O[C@H]3O[C@H](COc4ccc([N+](=O)[O-])cc4)[C@@H](O)[C@H](N)[C@H]3O)[C@H](N)C[C@@H]2N)[C@H](O)[C@@H](O)[C@@H]1O`, the Activity in test [2] was 62.6%; in test [3], 49.3%; in test [4] it was 35.9%; in test [5], 36.5%.
On to `CCCCCCCCCCCC(=O)NC[C@H]1O[C@H](O[C@H]2[C@H](O)[C@@H](O[C@H]3O[C@H](CO)[C@@H](O)[C@H](N)[C@H]3O)[C@H](N)C[C@@H]2N)[C@H](O)[C@@H](O)[C@@H]1O`, for which the Activity was 56.2% in test [2], 70.9% in test [3], 16.4% in test [4] and 53.6% in test [5]. The Selectivity ratio in test [1] was determined as 6.88.
Turning to `NC[C@H]1O[C@H](O[C@H]2[C@H](O)[C@@H](O[C@H]3O[C@H](CNC(=O)c4ccccc4-c4c5ccc(=O)cc-5oc5cc(O)ccc45)[C@@H](O)[C@H](N)[C@H]3O)[C@H](N)C[C@@H]2N)[C@H](O)[C@@H](O)[C@@H]1O`, the Activity came out at 81% in test [2], 55.1% in test [3], 37.1% in test [4] and 45.3% in test [5].
Regarding `CCCCCCCC(=O)NC[C@H]1O[C@H](O[C@H]2[C@H](O)[C@@H](O[C@H]3O[C@H](CO)[C@@H](O)[C@H](N)[C@H]3O)[C@H](N)C[C@@H]2N)[C@H](O)[C@@H](O)[C@@H]1O`, the Activity in test [2] came out at 25.2%; in test [3], 37.2%; in test [4] it was 14%; in test [5], 17%.
Consider `N[C@@H]1[C@@H](O)[C@@H](O[C@@H]2[C@@H](O)[C@H](O[C@H]3O[C@H](CNC(=O)c4cc(-c5ccccc5)nc5ccccc45)[C@@H](O)[C@H](O)[C@H]3O)[C@@H](N)C[C@H]2N)O[C@H](CO)[C@H]1O`, for which the Activity was determined as 22.8% in test [2], 51% in test [3], 8% in test [4] and 25.5% in test [5].
On to `NC[C@H]1O[C@H](O[C@H]2[C@H](O)[C@@H](O[C@H]3O[C@H](COc4ccc(-c5ccccc5)cc4)[C@@H](O)[C@H](N)[C@H]3O)[C@H](N)C[C@@H]2N)[C@H](O)[C@@H](O)[C@@H]1O`, for which the Activity was 67.8% in test [2], 54.3% in test [3], 46.3% in test [4] and 27.3% in test [5].
On to `NC[C@H]1O[C@H](O[C@H]2[C@H](O)[C@@H](O[C@H]3O[C@H](COc4ccc(-c5nc6ccccc6[nH]5)cc4)[C@@H](O)[C@H](N)[C@H]3O)[C@H](N)C[C@@H]2N)[C@H](O)[C@@H](O)[C@@H]1O`, for which the Activity in test [2] was 85.5%; in test [3], 71.7%; in test [4] it was 83.1%; in test [5] it was 43.2%. In addition, the Selectivity ratio in test [1] turned out to be 0.34.
The matching figures for `N[C@@H]1[C@@H](O)[C@@H](O[C@@H]2[C@@H](O)[C@H](O[C@H]3O[C@H](CNC(=O)CCCc4cc5ccc6cccc7ccc(c4)c5c67)[C@@H](O)[C@H](O)[C@H]3O)[C@@H](N)C[C@H]2N)O[C@H](CO)[C@H]1O`: 79.2%, 69.6%, 36.9%, 52.2% and 2.16.
As to `Cc1ccc(COC[C@H]2O[C@H](O[C@@H]3[C@@H](O)[C@H](O[C@H]4O[C@H](CN)[C@@H](O)[C@H](O)[C@H]4O)[C@@H](N)C[C@H]3N)[C@H](O)[C@@H](N)[C@@H]2OCc2ccc(C)cc2)cc1`, the Selectivity ratio in test [1] stood at 1.39.
Regarding `NC[C@H]1O[C@H](O[C@H]2[C@H](O)[C@@H](O[C@H]3O[C@H](COCc4ccc(Cl)cc4)[C@@H](OCc4ccc(Cl)cc4)[C@H](N)[C@H]3O)[C@H](N)C[C@@H]2N)[C@H](O)[C@@H](O)[C@@H]1O`, the Selectivity ratio in test [1] was found to be 0.15.
`COc1ccc(OC[C@H]2O[C@H](O[C@@H]3[C@@H](O)[C@H](O[C@H]4O[C@H](CN)[C@@H](O)[C@H](O)[C@H]4O)[C@@H](N)C[C@H]3N)[C@H](O)[C@@H](N)[C@@H]2O)cc1`: the Activity in test [2] worked out at 36.5%; in test [3] it was 34.8%; in test [4], 15.9%; in test [5], 20%.
The like results for `N[C@@H]1[C@@H](O)[C@@H](O[C@@H]2[C@@H](O)[C@H](O[C@H]3O[C@H](CNC(=O)c4ccc5cc(O)ccc5c4)[C@@H](O)[C@H](O)[C@H]3O)[C@@H](N)C[C@H]2N)O[C@H](CO)[C@H]1O` were, in that order, 32.8%, 37.1%, 4.7% and 34.1%.
On to `NC[C@H]1O[C@H](O[C@H]2[C@H](O)[C@@H](O[C@H]3O[C@H](COc4ccccc4)[C@@H](O)[C@H](N)[C@H]3O)[C@H](N)C[C@@H]2N)[C@H](O)[C@@H](O)[C@@H]1O`, for which the Activity in test [2] is 69.4%; in test [3], 46.7%; in test [4], 14.6%; in test [5] it was 36%.
Take `NC[C@H]1O[C@H](O[C@H]2[C@H](O)[C@@H](O[C@H]3O[C@H](COCc4cccc(-c5ccccc5)c4)[C@@H](OCc4cccc(-c5ccccc5)c4)[C@H](N)[C@H]3O)[C@H](N)C[C@@H]2N)[C@H](O)[C@@H](O)[C@@H]1O`: in test [1], the Selectivity ratio amounted to 1.23.
With `CCCCCCC(=O)NC[C@H]1O[C@H](O[C@H]2[C@H](O)[C@@H](O[C@H]3O[C@H](CO)[C@@H](O)[C@H](N)[C@H]3O)[C@H](N)C[C@@H]2N)[C@H](O)[C@@H](O)[C@@H]1O`, the Activity in test [2] was 34.3%; in test [3], 36%; in test [4], 22.5%; in test [5], 18.5%.
As to `NC[C@H]1O[C@H](O[C@H]2[C@H](O)[C@@H](O[C@H]3O[C@H](COCc4ccc(F)cc4)[C@@H](OCc4ccc(F)cc4)[C@H](N)[C@H]3O)[C@H](N)C[C@@H]2N)[C@H](O)[C@@H](O)[C@@H]1O`, in test [1], the Selectivity ratio came to 0.3.
Regarding `N[C@@H]1[C@@H](O)[C@@H](O[C@@H]2[C@@H](O)[C@H](O[C@H]3O[C@H](CNC(=O)c4ccccc4-c4c5ccc(=O)cc-5oc5cc(O)ccc45)[C@@H](O)[C@H](O)[C@H]3O)[C@@H](N)C[C@H]2N)O[C@H](CO)[C@H]1O`, the Activity in test [2] was 79.6%; in test [3] it was 83.4%; in test [4], 22.3%; in test [5] it was 56.8%. Besides, in test [1], the Selectivity ratio was 1.42.
Turning to `Cc1ccc(S(=O)(=O)OC[C@H]2O[C@H](O[C@@H]3[C@@H](O)[C@H](O[C@H]4O[C@H](CN)[C@@H](O)[C@H](O)[C@H]4O)[C@@H](N)C[C@H]3N)[C@H](O)[C@@H](N)[C@@H]2O)cc1`, the Activity was 49.2% in test [2], 51% in test [3], 26.8% in test [4] and 38.1% in test [5].
On to `CCCCCCCCCC(=O)NC[C@H]1O[C@H](O[C@H]2[C@H](O)[C@@H](O[C@H]3O[C@H](CO)[C@@H](O)[C@H](N)[C@H]3O)[C@H](N)C[C@@H]2N)[C@H](O)[C@@H](O)[C@@H]1O`, for which the Activity in test [2] amounted to 33.6%; in test [3] it was 53.5%; in test [4], 16.1%; in test [5], 44.4%.
